# Calls of active or inactive are those of the source. The calls are words filed in the database; no cut-off is given here.
# How the values were obtained:
# Staphylococcus aureus [1] = assay: Disruption of membrane integrity in Staphylococcus aureus MTCC-96 assessed as change in cocci shape in presence of Zn2+ ion by FE-SEM analysis; type: functional, organism-based
# Staphylococcus aureus [2] = assay: Antibacterial activity against Staphylococcus aureus MTCC-96 assessed as reduction in bacterial growth incubated for 14 to 16 hrs by microbroth dilution method; type: functional; conditions: time 14-16 hrs
# Staphylococcus aureus [3] = assay: In vivo antibacterial activity against Staphylococcus aureus MTCC-96 infected in Balb/c mouse assessed as reduction in bacterial load by measuring CFU in spleen at 31.6 microM/Kg, iv for 7 days in presence of ZnCl2 by CFU assay; type: functional, organism-based; conditions: time 7.0 day
# Staphylococcus aureus [4] = assay: In vivo antibacterial activity against Staphylococcus aureus MTCC-96 infected in Balb/c mouse assessed as normal morphology of spleen tissue at 156.5 microM/Kg, iv for 7 days by hematoxylin and eosin staining based microscopic analysis; type: functional, organism-based; conditions: time 7.0 day
# Staphylococcus aureus [5] = assay: Antibacterial activity against Staphylococcus aureus MTCC-96 assessed as reduction in bacterial growth incubated for 14 to 16 hrs in presence of 100 to 400 uM CaCl2 by microbroth dilution method; type: functional, organism-based; conditions: time 14-16 hrs
# Staphylococcus aureus [6] = assay: Antibacterial activity against Staphylococcus aureus MTCC-96 assessed as reduction in bacterial growth incubated for 14 to 16 hrs in presence of 100 to 400 uM CsCl by microbroth dilution method; type: functional, organism-based; conditions: time 14-16 hrs
# Staphylococcus aureus [7] = assay: Antibacterial activity against Staphylococcus aureus MTCC-96 assessed as resistance development by measuring fold increase in MIC and measured after 30 days by microbroth dilution method; type: functional; conditions: time 30 day
# Lipid bilayer [8] = assay: (§1) Induction of ionophore activity across EYPC:CHOL (8:2) large unilamellar vesicles assessed as transmembrane cation transport by measuring decrease in fluorescence intensity for HPTS dye preincubated for 3 mins followed by CaCl2 addition and mesured after 7.5 mins by HPTS dye based fluorescence spectrophotometric analysis; conditions: time 10.5 min
# PBMC [9] = assay: Cytotoxicity against human PBMC cells assessed as reduction in cell viability at 12.5 to 200 uM incubated for 24 hrs in presence of ZnCl2 by MTT assay; type: toxicity, cell-based; conditions: dose 12.5-200 µM
# Lipid bilayer [10] = assay: as §1, with “CuCl2” for “CaCl2”; conditions: filed as opener; time 10.5 min
# MCF7 = assay: Cytotoxicity against human MCF7 cells assessed as reduction in cell viability at 1 to 100 uM incubated for 44 hrs by MTT assay; type: toxicity, cell-based; conditions: mcf7, 44 h, dose 1-100 µM
# Staphylococcus aureus [11] = assay: In vivo antibacterial activity against Staphylococcus aureus MTCC-96 infected in Balb/c mouse assessed as uniform distribution of hepatic lobules in liver tissue at 31.6 microM/Kg, iv for 7 days in presence of ZnCl2 by hematoxylin and eosin staining based microscopic analysis; type: functional, organism-based; conditions: time 7.0 day
# Staphylococcus aureus [12] = assay: In vivo antibacterial activity against Staphylococcus aureus MTCC-96 infected in Balb/c mouse assessed as uniform distribution of sinusoids in liver tissue at 31.6 microM/Kg, iv for 7 days in presence of ZnCl2 by hematoxylin and eosin staining based microscopic analysis; type: functional, organism-based; conditions: time 7.0 day
# Staphylococcus aureus [13] = assay: In vivo antibacterial activity against Staphylococcus aureus MTCC-96 infected in Balb/c mouse assessed as normal architecture of portal vein in liver tissue at 31.6 microM/Kg, iv for 7 days in presence of ZnCl2 by hematoxylin and eosin staining based microscopic analysis; type: functional, organism-based; conditions: time 7.0 day
# Staphylococcus aureus [14] = assay: In vivo antibacterial activity against Staphylococcus aureus MTCC-96 infected in Balb/c mouse assessed as normal architecture of hepatic artery in liver tissue at 31.6 microM/Kg, iv for 7 days in presence of ZnCl2 by hematoxylin and eosin staining based microscopic analysis; type: functional, organism-based; conditions: time 7.0 day
# Staphylococcus aureus [15] = assay: Antibacterial activity against Staphylococcus aureus MTCC-96 assessed as resistance development by measuring fold increase in MIC and measured after 30 days in presence of ZnCl2 by microbroth dilution method; type: functional, organism-based; conditions: time 30.0 day
# Lipid bilayer [16] = assay: as §1, with “anion” for “cation”, “ZnBr2” for “CaCl2”; conditions: filed as opener; time 10.5 min
# Staphylococcus aureus [17] = assay: In vivo antibacterial activity against Staphylococcus aureus MTCC-96 infected in Balb/c mouse assessed as normal morphology of spleen tissue at 31.6 microM/Kg, iv for 7 days in presence of ZnCl2 by hematoxylin and eosin staining based microscopic analysis; type: functional, organism-based; conditions: time 7.0 day
# Escherichia coli = assay: Antibacterial activity against Escherichia coli MTCC 1687 assessed as reduction in bacterial growth incubated for 14 to 16 hrs by microbroth dilution method; type: functional; conditions: time 14-16 hrs
# [18] = Binding affinity to Zn2+ ion assessed as binding constant by Benesi-Hildebrand equation analysis
# Staphylococcus aureus [19] = assay: In vivo antibacterial activity against Staphylococcus aureus MTCC-96 infected in Balb/c mouse assessed as normal architecture of central vein in liver tissue at 31.6 microM/Kg, iv for 7 days in presence of ZnCl2 by hematoxylin and eosin staining based microscopic analysis; type: functional, organism-based; conditions: time 7.0 day
# Lipid bilayer [20] = assay: Induction of ionophore activity across EYPC:CHOL (8:2) large unilamellar vesicles assessed as transmembrane Zn2+ ion transport by measuring decrease in fluorescence intensity for HPTS dye upto 25 uM preincubated for 3 mins followed by ZnCl2 addition and mesured after 7.5 mins by HPTS dye based fluorescence spectrophotometric analysis; conditions: filed as opener, time 10.5 min
# Staphylococcus aureus [21] = assay: Antibacterial activity against Staphylococcus aureus MTCC-96 assessed as reduction in bacterial growth incubated for 14 to 16 hrs in presence of 100 to 400 uM CuCl2 by microbroth dilution method; type: functional, organism-based; conditions: time 14-16 hrs
# Staphylococcus aureus [22] = assay: Bactericidal activity against Staphylococcus aureus MTCC-96 assessed as reduction in bacterial colony formation at 2 times MIC incubated upto 8 hrs in presence of ZnCl2 by agar-plate method; type: functional, organism-based
# Lipid bilayer [23] = assay: as §1, with “MgCl2” for “CaCl2”; conditions: time 10.5 min
# PBMC [24] = assay: Cytotoxicity against human PBMC cells assessed as reduction in cell viability at 12.5 to 200 uM incubated for 24 hrs by MTT assay; type: toxicity, cell-based; conditions: dose 12.5-200 µM
# Staphylococcus aureus [25] = assay: In vivo antibacterial activity against Staphylococcus aureus MTCC-96 infected in Balb/c mouse assessed as uniform distribution of sinusoids in liver tissue at 156.5 microM/Kg, iv for 7 days by hematoxylin and eosin staining based microscopic analysis; type: functional, organism-based; conditions: time 7.0 day
# Staphylococcus aureus [26] = assay: Induction of intracellular ROS generation in Staphylococcus aureus MTCC-96 at 1 uM incubated for 30 mins in presence of Zn2+ ions by DCF-DA staining based fluorescence microscopic analysis; type: functional, organism-based
# Cell membrane = assay: Induction of ionophore activity across Staphylococcus aureus MTCC-96 cell membrane assessed as AQZ directed Zn2+ ion transport by measuring increase in AQZ fluorescence intensity in presence of ZnCl2 and 2-((2-(2-hydroxyethoxy)ethyl)-amino)-N-(quinolin-8-yl)acetamide by fluorescence analysis; type: subcellular; conditions: filed as opener
# Staphylococcus aureus [27] = assay: In vivo antibacterial activity against Staphylococcus aureus MTCC-96 infected in Balb/c mouse assessed as uniform distribution of hepatocytes in liver tissue at 31.6 microM/Kg, iv for 7 days in presence of ZnCl2 by hematoxylin and eosin staining based microscopic analysis; type: functional, organism-based; conditions: time 7.0 day
# Staphylococcus aureus [28] = assay: Antibacterial activity against Staphylococcus aureus MTCC-96 assessed as reduction in bacterial growth incubated for 14 to 16 hrs in presence of 100 to 400 uM Zn(NO3)2 by microbroth dilution method; type: functional, organism-based; conditions: time 14-16 hrs
structure (smiles),measurement,setting,value
FC(F)(F)c1cc(NC(=S)Nc2cccc3ccc(-n4cnc5ccccc54)nc23)cc(C(F)(F)F)c1,Activity,Staphylococcus aureus [1],inactive
same,MIC,Staphylococcus aureus [2],3.13 µM
same,Activity,Staphylococcus aureus [3],Active
same,Activity,Staphylococcus aureus [4],Active
same,Activity,Staphylococcus aureus [5],inactive
same,Activity,Staphylococcus aureus [6],inactive
same,fold change (FC),Staphylococcus aureus [7],14
same,Activity,Lipid bilayer [8],inactive
same,Activity,PBMC [9],Non-Toxic
same,Activity,Lipid bilayer [10],Active
same,Activity,MCF7,Non-Toxic
same,Activity,Staphylococcus aureus [11],Active
same,Activity,Staphylococcus aureus [12],Active
same,Activity,Staphylococcus aureus [13],Active
same,Activity,Staphylococcus aureus [14],Active
same,Activity,Staphylococcus aureus [15],inactive
same,Activity,Lipid bilayer [16],Active
same,Activity,Staphylococcus aureus [17],Active
same,MIC,Escherichia coli,> 50 µM
same,K,[18],1.36 10^3/M
same,Activity,Staphylococcus aureus [19],Active
same,Activity,Lipid bilayer [20],Active
same,Activity,Staphylococcus aureus [21],inactive
same,Activity,Staphylococcus aureus [22],Active
same,Activity,Lipid bilayer [23],inactive
same,Activity,PBMC [24],Non-Toxic
same,Activity,Staphylococcus aureus [25],Active
same,Activity,Staphylococcus aureus [26],Active
same,Activity,Cell membrane,Active
same,Activity,Staphylococcus aureus [27],Active
same,Activity,Staphylococcus aureus [28],Active
